Assay results taken from patent US10413535B2, “Pharmaceutical compositions comprising an integrin ALPHA4 antagonist for use in treating ocular inflammatory conditions” (AXEROVISION, INC., priority 2015, dated 2019).
“Also recorded” adds a separate entry of the source.

Columns and labels:
Rat α4β1 = molecular target: T1, Rat α4β1 (Rattus norvegicus, UniProt D3ZMQ3+P49134); experiment: Saturation binding assay in RBL-2H3 cells (SPA); details: [3H]GW559090, RBL-2H3 cells
T1 construct: rat RBL-2H3 cells which express rat α4β1; endogenous in cells; host or cells: RBL-2H3 cells (rat basophilic cell line)
T1 sequence (D3ZMQ3 1-1036): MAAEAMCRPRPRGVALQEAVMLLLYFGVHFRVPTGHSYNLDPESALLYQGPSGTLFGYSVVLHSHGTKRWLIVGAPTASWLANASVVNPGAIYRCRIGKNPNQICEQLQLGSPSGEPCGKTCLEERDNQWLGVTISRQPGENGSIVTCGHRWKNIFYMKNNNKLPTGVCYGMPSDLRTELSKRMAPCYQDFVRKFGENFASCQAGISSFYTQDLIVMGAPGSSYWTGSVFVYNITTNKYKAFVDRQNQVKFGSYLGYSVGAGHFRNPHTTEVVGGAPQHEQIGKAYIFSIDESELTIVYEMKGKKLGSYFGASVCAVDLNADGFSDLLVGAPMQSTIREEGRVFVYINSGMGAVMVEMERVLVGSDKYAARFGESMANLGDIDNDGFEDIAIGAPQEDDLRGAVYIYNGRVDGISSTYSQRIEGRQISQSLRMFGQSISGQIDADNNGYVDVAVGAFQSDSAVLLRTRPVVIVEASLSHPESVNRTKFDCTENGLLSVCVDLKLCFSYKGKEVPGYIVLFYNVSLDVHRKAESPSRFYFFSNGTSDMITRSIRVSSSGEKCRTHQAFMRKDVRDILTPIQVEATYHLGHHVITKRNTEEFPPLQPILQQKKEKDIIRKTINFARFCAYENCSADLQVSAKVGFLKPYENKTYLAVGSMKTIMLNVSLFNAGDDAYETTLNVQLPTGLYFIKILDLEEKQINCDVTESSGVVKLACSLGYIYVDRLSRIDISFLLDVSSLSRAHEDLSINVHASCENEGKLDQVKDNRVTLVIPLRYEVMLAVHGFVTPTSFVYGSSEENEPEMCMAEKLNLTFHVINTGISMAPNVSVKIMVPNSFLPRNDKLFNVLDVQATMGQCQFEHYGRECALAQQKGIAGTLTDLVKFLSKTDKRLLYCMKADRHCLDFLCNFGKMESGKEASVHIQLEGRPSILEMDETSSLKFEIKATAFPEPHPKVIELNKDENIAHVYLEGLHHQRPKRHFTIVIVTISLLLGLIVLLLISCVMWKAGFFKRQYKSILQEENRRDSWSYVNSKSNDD
T1 sequence (P49134 21-799): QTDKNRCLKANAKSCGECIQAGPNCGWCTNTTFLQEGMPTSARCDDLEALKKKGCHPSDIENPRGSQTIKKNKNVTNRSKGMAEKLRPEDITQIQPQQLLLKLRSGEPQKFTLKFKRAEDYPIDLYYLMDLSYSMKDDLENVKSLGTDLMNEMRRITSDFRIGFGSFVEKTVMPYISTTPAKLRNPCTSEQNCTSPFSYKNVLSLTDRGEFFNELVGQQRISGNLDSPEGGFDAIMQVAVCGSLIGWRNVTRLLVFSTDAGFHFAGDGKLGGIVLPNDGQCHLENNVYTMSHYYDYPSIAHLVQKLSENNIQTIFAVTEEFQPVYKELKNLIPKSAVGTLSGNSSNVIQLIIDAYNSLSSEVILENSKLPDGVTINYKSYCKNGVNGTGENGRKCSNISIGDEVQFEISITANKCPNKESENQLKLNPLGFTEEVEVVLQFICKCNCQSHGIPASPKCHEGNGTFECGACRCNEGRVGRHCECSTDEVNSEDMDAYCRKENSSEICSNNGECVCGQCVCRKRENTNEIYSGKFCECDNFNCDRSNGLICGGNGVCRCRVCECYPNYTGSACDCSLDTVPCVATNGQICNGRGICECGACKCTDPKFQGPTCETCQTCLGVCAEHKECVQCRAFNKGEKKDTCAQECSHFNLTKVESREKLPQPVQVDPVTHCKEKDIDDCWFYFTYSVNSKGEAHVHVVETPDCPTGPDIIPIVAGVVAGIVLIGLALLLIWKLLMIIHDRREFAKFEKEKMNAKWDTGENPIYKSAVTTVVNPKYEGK
Method: (§1) Jurkat J6 cells (human lymphoblast cell line) were grown as a suspension culture in RPMI 1640 supplemented with FCS (10%) and glutamine (2 mM). RPMI8866 cells (human B lymphoid cell line) were grown as a suspension culture in RPMI 1640 supplemented with FCS (10%) and glutamine (2 mM). RBL-2H3 cells (rat basophilic cell line) were cultured in Eagle's MEM plus Earles salts supplemented with 2 mM L-glutamine, 1 mM sodium pyruvate, 1× non-essential amino acids, 1 mM Na pyruvate 10% heat inactivated foetal calf serum.
The assay buffer contained 50 mM HEPES, 100 mM NaCl, 1 mM MnCl2, pH 7.5 (with NaOH). WGA SPA beads were used at 1 mg/well. Cells were harvested and resuspended in assay buffer and 1 million cells were added per well in a white bottomed plate. Cold GW559090 to give a final assay concentration of 20 μM (to define nonspecific binding) or buffer alone were added and then [3H] GW559090 across a concentration range across the plate was added (nominal [3H] GW559090 concentration range was 0.01 to 200 nM). The final assay volume was 250 μL. The plate was then incubated at 37° C. for 2 h. Disintegrations were counted by scintillation (from the WGA SPA beads) in a Wallac Microbeta plate reader.
The actual amount of [3H] GW559090 added for each concentration of the saturation curve was measured by counting disintegrations per minute from a 50 μL aliquot of the label dilution range.

[1] = tested on: cells of draining cervical lymph nodes; experiment: Flow cytometry of draining cervical lymph nodes, desiccating stress 1 day; format: in vivo, mouse; details: 1 day DS; for CD11c+ dendritic cells in draining cervical lymph nodes / CD11c+/MHC II+ dendritic cells in draining cervical lymph nodes: listed as compound of formula I
Method: Female C57BL/6 mice, aged 6 to 8 weeks, were subjected to DS for 5 days (DS5) as described previously (de Paiva et al., 2006b; Niederkorn et al., 2006). Topical bilateral treatment with 1 eye drop per eye (2 μL volume) or subcutaneous injection (4 μL volume), 2 times per day, was initiated on day 1 concurrently with DS and continued through day 4. Treatment with the compound of formula I or dexamethasone phosphate 0.1% was compared to correspondingly treated vehicle controls. Mice were randomized to receive one of the test articles. Control mice were kept in a non-stressed (NS) environment maintained at 50-75% relative humidity without exposure to airflow or scopolamine and were not treated with test or control article. Treatment effects were assessed on corneal staining with Oregon Green Dextran (OGD); expression of inflammatory markers in ocular surface tissues by real time PCR; cell population analysis in draining cervical lymph nodes by FACS analysis; conjunctival T cell infiltration by immunohistochemistry.
Cervical draining lymph nodes (CLN) were surgically excised, placed in a round culture plate with ˜8 mL of complete RPMI media and smashed between two frosted slides.
Single-cell suspensions of CLN from C57BL/6 mice, treated under DS conditions for 1 day, were prepared, centrifuged and sequentially filtered, as previously described (de Paiva et al., 2009a). Subsequently 1.0 mL of ACT solution was added for 30 seconds followed by 2.0 mL of complete RPMI. The cells were once again centrifuged and the supernatant aspirated. Cells were then re-suspended in 2.0 mL of complete RPMI and prepared for counting. Ten μL of Trypan Blue were used for counting and the cells were divided in tubes at 1×10^6 cells/mL. Subsequently, the cells were incubated on ice in 20 μL unconjugated anti-mouse CD16/CD32 (BD Pharmingen, San Diego, Calif.) followed by 80 μL of directly conjugated primary antibody or isotype. Finally the samples were washed with 1 mL PBS/1% FBS, centrifuged and re-suspend in 0.3 mL PBS/1% FBS containing 1:1000 of PI. The samples were stored at 4° C. until the analysis was performed with an A BD LSRII Benchtop cytometer. The data was analysed using BD Diva Software (BD Pharmingen) and FlowJo (TreeStar Inc).
Due to skewed distribution of OGD data, the analysis was done on the log 10 scale to make the data more normally distributed. Log 10 OGD data was averaged across two observers and the left and right eyes. The mixed effects ANOVA model included treatment group as a fixed effect and week as a random effect. 95% and 99% confidence intervals were constructed for the disease (5 day DS vs untreated group kept in separate vivarium) and compound treatment effects (treatment vs vehicle). As these comparisons were all pre-planned (comparing each treatment to its vehicle group), no adjustment was made for multiplicity. Log 10 scale treatment effect estimates and confidence limits were converted back to the original OGD scale, thus representing the estimate for the ratio of group geometric means and their confidence limits. For gene expression analysis, an unpaired T test was performed to compare drug and vehicle treatment. For flow cytometry analysis, a 2-way ANOVA with fixed treatment and random experiment effects was employed to test the treatment differences. The analysis was followed by Dunnett's multiple comparison procedure to compare each of the treatment groups with the vehicle group. T cell density was calculated for each section and averaged across sections for each animal. As the distribution of average cell density data was non-normal, it was analyzed by using non-parametric methods (Kruskal-Wallis procedure, followed by Dunn's multiple comparisons technique).
The draining CLN are an integral part of the immune cycle in DED (Pflugfelder et al., 2008; Schaumburg et al., 2011). […]

[2] = tested on: RPMI 8866 binding to CS-1; experiment: CS-1 cell adhesion assay, RPMI 8866 cells; format: cell-based; details: Homo sapiens; RPMI 8866 cells to CS-1; identical duplicate values; read-out: Inhibition of cell adhesion (IC50)
Method: as §1
Polystyrene 96-well microtitre plates were coated with CS-1 (connecting segment 1, a cell attachment domain of fibronectin) at a concentration of 0.01 mg/mL in bicarbonate buffer overnight at 4° C. The solution was aspirated and the plates washed twice with PBS. The plates were then incubated at room temperature in the presence of 3% BSA for 60 min, ‘flicked’ to expel the BSA and washed twice in bicarbonate buffer. J6 or RPMI cells (as required) were labelled with the fluorescent dye BCECF-AM (10 μM and 6×10^6 cells/mL) for 10 min at 37° C. before the excess was removed by centrifugation at 500 g for 5 min and the cells resuspended at a cell concentration of 1.2×10^7 cells/mL in HBSS. Equal volumes of HBSS containing the compound of formula I (over concentration range 19.0 pM to 5 μM) and cells were added to the CS-1 coated plates. […] The plates were counted in a Wallac Viktor.

[3] = topical treatment, vs vehicle (GW559090 30 mg/mL, 60 μg per eye; Dex 0.1%)

Cc1ccccc1OCC(=O)N[C@@H](CC(C)C)C(=O)N[C@@H](Cc1ccc(OC(=O)N2CCC(C(N)=O)CC2)cc1)C(=O)O [GW559090, (2S)-3-[4-({[4-(Aminocarbonyl)-1-piperidinyl]carbonyl}oxy)phenyl]-2-[((2S)-4-methyl-2-{[2-(2-methylphenoxy)acetyl]amino}pentanoyl)amino]propanoic acid]
Kd (Rat α4β1): 1.04 nM
CD4+ and CD8+ T cells in draining lymph nodes [1]: nor did treatment with the compound of formula I or dexamethasone decrease the number of T cells
CD11c+ dendritic cells in draining cervical lymph nodes ([1]; systemic (SC BID, 120 μg)): Neither systemic treatment with the compound of formula I nor topical treatment with dexamethasone phosphate produced the same effect; also recorded: no significant effect
CD11c+/MHC II+ dendritic cells in draining cervical lymph nodes ([1]; systemic (SC BID, 120 μg)): no significant effect
CD11c+ dendritic cells in draining cervical lymph nodes [1, 3]: reduced; also recorded: decreases
CD11c+/MHC II+ dendritic cells in draining cervical lymph nodes [1, 3]: reduced; also recorded: decreases
IC50 [2]: 24.5 nM
